This is an account of results in patent publication US20160159940A1, “POLYDENDRONS” (The Univeristy of Liverpool, priority 2013, published 2016).

Data set [1] concerns Caco-2 cells. As to the kind of experiment: ATP assay (CellTiter-Glo) of Caco-2 cells (cytotoxicity). The class given is cell-based. Here is the method:
(§1) Caco-2 cells were purchased from American Type Culture Collection (ATCC, USA) and maintained in Dulbecco's Modified Eagles Medium (DMEM) supplemented with 15% filtered sterile foetal bovine serum. Cells were incubated at 37° C. and 5% CO2 and were routinely sub-cultured every 4 days when 90% confluent. Cell count and viability was determined using a Countess automated cell counter (Invitrogen).
(§2) Caco-2 cells were seeded at a density of 1.0×10^4 cells/100 μl in DMEM supplemented with 15% FBS into each well of a 96 well plate (Nunclon, Denmark) and incubated at 37° C. and 5% CO2. Cells from 4 separate flasks of biological replicates of each cell type were used (N1-4) to improve statistical power. Media was then aspirated from […] and replaced with media containing each polydendron or aqueous Nile Red solution at an equivalent 1 μM Nile Red concentration then diluted 1:1 in media across the plate up to column 11. Column 12 served as a negative control and consisted of media and untreated cells. Following polydendron addition, the plates were incubated for 24 hours or 120 hours at 37° C., 5% CO2 prior to assessment of cytotoxicity.
Following incubation of treated plates for 24 h or 120 h, cells were equilibrated to room temperature for approximately 30 minutes. All but 20 μl of media was removed from each well and 20 μl CellTiter-Glo® (Promega, UK) reagent was added. All reagents were made fresh and in accordance with the manufacturer's instructions. Plates were put on an orbital shaker for 10 minutes to mix contents and allow for stabilisation of luminescence signal. Luminescence was then measured using a Tecan Genios plate reader (Tecan Magellan, Austria).
(In general: Cellular ATP, detected with luciferase, serves as a proxy for viable cell number.)

Data set [2] relates to Caco-2 cell monolayers. As to the kind of experiment: Transcellular permeability of Nile Red across Caco-2 cell monolayers. The class given is in vitro ADME. The settings on record: 1 hour incubation. Here is the method: (§3) Transwells were seeded with 3.5×10^4 cells per well and propagated to a monolayer over a 21 day period, during which media in the apical and basolateral wells was changed every other day. Trans-epithelial electrical resistance (TEER) values were monitored until they were >1300Ω. 1 μM of Nile Red polydendron or 1 μM aqueous Nile Red was added to the apical chamber of 4 wells and the basolateral chamber of 4 wells to quantify transport in both Apical to Basolateral (A>B) and Basolateral to Apical (B>A) direction and sampled on an hourly basis over a 4 h time period. Apparent permeability coefficient was then determined by the amount of compound transported over time using the equation: […]
(§4) where (dQ/dt) is the amount per time (nmol·sec^−1), A is the surface area of the filter and C0 is the starting concentration of the donor chamber (1 μM).
(§5) 100 μl of each collected sample was mixed with 900 μl acetone, vortexed, sonicated for 6 minutes and centrifuged at 13300 rpm for 3 minutes. The supernatant was completely dried in a vacuum centrifuge at 30° C. until the dry solid sample was left. This was reconstituted in 150 μl acetonitrile, transferred to a 96-well black walled, flat bottomed plate and measured for fluorescence intensity excitation wavelength 480 nm, emission wavelength 560 nm using a Tecan Genios plate reader (Tecan Magellan, Austria).
Background: Passage across Caco-2 layers is used to estimate intestinal permeability.

Test in data set [3]: as above
The class given is in vitro ADME. Conditions: human, Caco-2, 1 hour incubation, 1 μM Nile Red, mean of biological triplicate. Here is the method: as §3, §4, §5

In data set [4] the test system is Caco-2 cells. As to the kind of experiment: MTT assay of Caco-2 cells (cytotoxicity). The class given is cell-based. The method, then:
as §1, §2
Following incubation of treated plates for 24 h or 120 h, 20 μl of 5 mg ml^−1 MTT reagent was added to each well and incubated for 2 hours. Subsequently, 100 μL MTT lysis buffer (50% N—N-Dimethylformamide in water containing 20% SDS, 2.5% glacial acetic acid and 2.5% hydrochloric acid, pH 4.7) was added to each well to lyse overnight at 37° C., 5% CO2. Following incubation the absorbance of each well was read using a Tecan Genosis plate reader at 560 nm (Tecan Magellan, Austria).

The mark [5] stands for this setting: 24 hour incubation, range of concentrations investigated.
Setting [6] is: 120 hour incubation, range of concentrations investigated.

On to `CCN(CC)c1ccc2nc3c4ccccc4c(=O)cc-3oc2c1` [aqueous Nile Red, Nile red], for which, in data set [1] (setting [5]), the “ATP presence compared to untreated cells” value was “not affected”. Further, the concentration giving a half-maximal response (EC50) (usually the midpoint of the concentration-response curve) in data set [1] (120 hour incubation, FIG. 9) is “No EC50”; in data set [1] (Homo sapiens, Caco-2, 24 hour incubation, FIG. 8, read-out: EC50) it was 1950 nM; in data set [4] (120 hour incubation, FIG. 7), “No EC50”; in data set [4] (Homo sapiens, Caco-2, 24 hour incubation, FIG. 6, read-out: EC50), 1160 nM. In addition, the “viability compared to untreated cells” value in data set [1] (setting [6]) is listed as “not affected”. Also, the “A > B/B > A ratio” value in data set [2] was 3.7140. Also, the Papp A→B at 1 h, 1 μM in data set [3] (read-out: Papp Apical > Basolateral) worked out at 23.7 ×10⁻⁶ cm/s. In addition, the Papp B→A at 1 h, 1 μM in data set [3] (read-out: Papp Basolateral > Apical) amounted to 6.38 ×10⁻⁶ cm/s. Also, in data set [4] (setting [5]), the “metabolic turnover of Caco-2 cells compared to untreated cells” value is reported as “did not affect metabolic turnover”. Moreover, the “viability of Caco-2 cells” value in data set [4] (setting [6]) was “did not affect the viability”.
